Measured values as given in ChEMBL document CHEMBL2073966, “Cloning and functional characterization of a new multispecific organic anion transporter, OAT-K2, in rat kidney” (Mol Pharmacol, 1999).

How the values were obtained:
Type in all cases: functional, cell-based
[1] = molecular target: T1, Solute carrier organic anion transporter family member 1A3 (Rattus norvegicus, UniProt P70502); assay: TP_TRANSPORTER: inhibition of Taurocholate uptake in OAT-K2-expressing MDCK cells; conditions: dog
T1 sequence (P70502 whole entry): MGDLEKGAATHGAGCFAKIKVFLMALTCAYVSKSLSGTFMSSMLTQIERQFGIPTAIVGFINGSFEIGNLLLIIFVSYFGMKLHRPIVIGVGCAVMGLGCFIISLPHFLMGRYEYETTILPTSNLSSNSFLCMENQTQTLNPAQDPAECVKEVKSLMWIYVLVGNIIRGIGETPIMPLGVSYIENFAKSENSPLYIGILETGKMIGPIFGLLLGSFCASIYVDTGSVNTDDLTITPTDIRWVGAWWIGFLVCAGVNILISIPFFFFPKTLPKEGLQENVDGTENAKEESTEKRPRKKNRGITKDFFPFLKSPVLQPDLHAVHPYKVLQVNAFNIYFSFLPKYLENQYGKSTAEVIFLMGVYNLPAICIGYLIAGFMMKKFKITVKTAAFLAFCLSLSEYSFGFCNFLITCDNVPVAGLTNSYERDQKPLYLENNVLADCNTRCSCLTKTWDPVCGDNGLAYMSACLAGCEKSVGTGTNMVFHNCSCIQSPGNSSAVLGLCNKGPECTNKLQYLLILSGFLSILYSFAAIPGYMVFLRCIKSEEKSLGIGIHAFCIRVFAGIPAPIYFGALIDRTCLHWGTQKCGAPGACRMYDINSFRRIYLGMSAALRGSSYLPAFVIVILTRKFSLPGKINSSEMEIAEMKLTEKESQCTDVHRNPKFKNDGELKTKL

[2] = molecular target: T1, Solute carrier organic anion transporter family member 1A3; assay: TP_TRANSPORTER: uptake in OAT-K2-expressing MDCK cells; conditions: dog
[3] = molecular target: T1, Solute carrier organic anion transporter family member 1A3; assay: TP_TRANSPORTER: uptake in Xenopus laevis oocytes; conditions: oocyte

C[C@H](CCC(=O)O)[C@H]1CC[C@H]2[C@@H]3CC[C@@H]4C[C@H](O)CC[C@]4(C)[C@H]3C[C@H](O)[C@]12C [DEOXYCHOLIC ACID]
Activity [1]: inhibitor [+]

C[C@@H]1C[C@H]2[C@@H]3CCC4=CC(=O)C=C[C@]4(C)[C@@]3(F)[C@@H](O)C[C@]2(C)[C@@]1(O)C(=O)CO [DEXAMETHASONE]
Activity [1]: inhibitor [+]

CCCCC[C@H](O)/C=C/[C@H]1[C@H](O)CC(=O)[C@@H]1C/C=C\CCCC(=O)O [DINOPROSTONE]
Activity [2]: substrate [+] | Activity [3]: substrate [+]

C[C@]12CC[C@@H]3c4ccc(O)cc4CC[C@H]3[C@@H]1CC[C@@H]2O [ESTRADIOL]
Activity [1]: inhibitor [+]

C[C@]12CC[C@@H]3c4ccc(O)cc4CC[C@H]3[C@@H]1C[C@@H](O)[C@@H]2O [ESTRIOL]
Activity [1]: inhibitor [+]

Nc1nc2ncc(CNc3ccc(C(=O)N[C@@H](CCC(=O)O)C(=O)O)cc3)nc2c(=O)[nH]1 [FOLIC ACID]
Activity [3]: substrate [+]

C[C@H](CCC(=O)NCC(=O)O)[C@H]1CC[C@H]2[C@@H]3[C@H](O)C[C@@H]4C[C@H](O)CC[C@]4(C)[C@H]3CC[C@]12C [GLYCOCHENODEOXYCHOLATE]
Activity [1]: inhibitor [+]

C[C@H](CCC(=O)NCC(=O)O)[C@H]1CC[C@H]2[C@@H]3[C@H](O)C[C@@H]4C[C@H](O)CC[C@]4(C)[C@H]3C[C@H](O)[C@]12C [GLYCOCHOLIC ACID]
Activity [1]: inhibitor [+]

COc1ccc2c(c1)c(CC(=O)O)c(C)n2C(=O)c1ccc(Cl)cc1 [INDOMETHACIN]
Activity [1]: inhibitor [+]

CN(Cc1cnc2nc(N)nc(N)c2n1)c1ccc(C(=O)N[C@@H](CCC(=O)O)C(=O)O)cc1 [METHOTREXATE]
Activity [3]: substrate [+]

C[C@]12C=CC(=O)C=C1CC[C@@H]1[C@@H]2[C@@H](O)C[C@@]2(C)[C@H]1CC[C@]2(O)C(=O)CO [PREDNISOLONE]
Activity [1]: inhibitor [+]

CCCN(CCC)S(=O)(=O)c1ccc(C(=O)O)cc1 [PROBENECID]
Activity [1]: inhibitor [+]

CC(=O)S[C@@H]1CC2=CC(=O)CC[C@]2(C)[C@H]2CC[C@@]3(C)[C@@H](CC[C@@]34CCC(=O)O4)[C@H]12 [SPIRONOLACTONE]
Activity [1]: inhibitor [+]

O=C1OC(c2ccc(O)c(S(=O)(=O)[O-])c2)(c2ccc(O)c(S(=O)(=O)[O-])c2)c2c(Br)c(Br)c(Br)c(Br)c21.[Na+].[Na+] [SULFOBROMOPHTHALEIN SODIUM]
Activity [1]: inhibitor [+]

C[C@H](CCC(=O)NCCS(=O)(=O)O)[C@H]1CC[C@H]2[C@@H]3[C@H](O)C[C@@H]4C[C@H](O)CC[C@]4(C)[C@H]3CC[C@]12C [TAUROCHENODEOXYCHOLATE]
Activity [1]: inhibitor [+]

C[C@H](CCC(=O)NCCS(=O)(=O)O)[C@H]1CC[C@H]2[C@@H]3CC[C@@H]4C[C@H](O)CC[C@]4(C)[C@H]3C[C@H](O)[C@]12C [TAURODEOXYCHOLIC ACID]
Activity [1]: inhibitor [+]

C[C@]12CC[C@H]3[C@@H](CCC4=CC(=O)CC[C@@]43C)[C@@H]1CC[C@@H]2O [TESTOSTERONE]
Activity [1]: inhibitor [+]

C[C@H](CCC(=O)O)[C@H]1CC[C@H]2[C@@H]3[C@@H](O)C[C@@H]4C[C@H](O)CC[C@]4(C)[C@H]3CC[C@]12C [URSODIOL]
Activity [1]: inhibitor [+]
